The record followed here is patent US11667667B2, “Steroid derivative FXR agonist” (Chia Tai Tianqing Pharmaceutical Group Co., Ltd., priority 2016, dated 2023).

Data set [1] concerns the target T1, Glutathione-S-transferase-labeled FXR human protein (Homo sapiens, UniProt Q96RI1).
T1 construct: purchased Invitrogen
T1 sequence (Q96RI1 1-486): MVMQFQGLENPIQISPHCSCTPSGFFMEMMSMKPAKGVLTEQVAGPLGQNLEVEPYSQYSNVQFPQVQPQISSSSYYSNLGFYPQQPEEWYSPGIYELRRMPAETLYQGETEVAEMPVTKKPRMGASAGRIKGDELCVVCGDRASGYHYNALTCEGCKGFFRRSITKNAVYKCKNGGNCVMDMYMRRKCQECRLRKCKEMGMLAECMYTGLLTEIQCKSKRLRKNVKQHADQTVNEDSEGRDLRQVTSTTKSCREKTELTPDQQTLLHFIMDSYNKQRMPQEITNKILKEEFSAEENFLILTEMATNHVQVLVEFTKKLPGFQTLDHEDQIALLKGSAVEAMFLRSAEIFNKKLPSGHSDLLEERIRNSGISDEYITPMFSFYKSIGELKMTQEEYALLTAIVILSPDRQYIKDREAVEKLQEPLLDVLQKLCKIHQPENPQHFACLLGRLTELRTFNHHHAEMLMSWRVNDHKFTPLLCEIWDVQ
The experiment in a line: FXR biochemical experiment (AlphaScreen, coactivator recruitment). Conditions: for Emax: ratio of highest signal of the compound to that of the reference compound, read-out: FXR enzyme activity Efficacy; for pEC50: AlphaScreen, GST-FXR human protein + biotin-labeled steroid receptor coactivator, read-out: FXR enzyme activity EC50. The protocol:
FXR Biochemical Experiment Experimental Purpose: The activation effect of the compound on FXR binding reaction was detected by AlphaScreen. […] Protein: Glutathione-S-transferase-labeled FXR human protein (Invitrogen) 2. Co-activator: Biotin-labeled steroid receptor coactivator (Anaspec) 3. […] Compound Dilution: The compound to be tested was prepared as a 40 μM DMSO solution, and then diluted 3-fold to 10 concentration points. The reference compound was prepared as a 400 μM DMSO solution, and then diluted 1.5-fold to 10 concentration points. The diluted DMSO solution was added to the wells of a 384-well plate in a volume of 150 nL per well. 2. […] 4. […] The operation during the experimental process was protected from light. The incubation was performed for 1 hour at room temperature. 5. […] The operation during the experimental process was protected from light. The incubation was performed for 1 hour at room temperature. 6. EC50 test: Envision was used with excitation at 680 nm to read the […] signals at 520-620 nm. 7. Analytical data: The data were analyzed via using Prism 5.0, and the EC50 values of the activation effects of the compounds were calculated.
On the technique in general: Alpha assays give light when donor and acceptor beads are brought close together.

The target of data set [2] is T2, FXR (FXR HEK 293T DA cell line) (Homo sapiens, UniProt Q96RI1).
T2 construct: expressed in transfected cells; host or cells: HEK 293T (FXR HEK 293T DA)
T2 sequence (Q96RI1 with tags, fused parts or gaps limits assumed): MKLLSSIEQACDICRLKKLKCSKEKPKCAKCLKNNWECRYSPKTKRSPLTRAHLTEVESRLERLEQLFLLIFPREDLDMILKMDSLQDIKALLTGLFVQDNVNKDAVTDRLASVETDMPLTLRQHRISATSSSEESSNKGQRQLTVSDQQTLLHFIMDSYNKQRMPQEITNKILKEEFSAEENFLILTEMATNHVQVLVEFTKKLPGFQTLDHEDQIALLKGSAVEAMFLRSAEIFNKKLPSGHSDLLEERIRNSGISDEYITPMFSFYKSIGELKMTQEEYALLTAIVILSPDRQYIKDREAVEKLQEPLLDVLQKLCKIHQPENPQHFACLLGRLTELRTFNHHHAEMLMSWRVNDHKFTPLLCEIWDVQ
Description: FXR cell experiment (β-lactamase reporter gene, GeneBLAzer).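 As to FXR cell activity Efficacy: Emax relative to maximal signal of reference agonist chenodeoxycholic acid (CDCA).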 It counts as cell-based. The conditions noted are these: for Emax: HEK-293T, read-out: FXR cell activity Efficacy; for pEC50: FXR HEK 293T DA cells, β-lactamase reporter, 16 hours. On the procedure:
Compound Dilution: The compound to be tested was prepared as a 100 μM DMSO solution, and then the compound was diluted 3-fold to 10 concentration points. The reference compound was prepared as a 100 μM DMSO solution, and then diluted 1.3-fold to 10 concentration points. The diluted DMSO solution was added to the wells of a 384-well plate in a volume of 200 nL per well. 2. […] The 384-well microplate was incubated at 37° C., 5% CO2 for 16 hours. 4. 6 μL of 1 mM LiveBLAzer™-FRET B/G (CCF4-AM) substrate was mixed with 60 μL of B solution and 934 μL of C solution, and added to the wells of the 384-well plate in a volume of 8 μL per well. […] The 384-well microplate was incubated in dark for 2 hours at room temperature. 6. […] 7.

The nature of data set [3]: Pharmacokinetics in mice administrated with single compound. In kind it is in vivo, mice (C57BL/6J). The conditions noted are these: for drug exposure compared with control compound INT-747 / peak concentration compared with control compound INT-747: mice, oral administration at the same dosage. On the procedure:
Pharmacokinetics in Mice Administrated with Single Compound:
12 male mice (C57BL/6J) were randomly divided into two groups, i.e., 6 mice per group. […] Plasma (using K2-EDTA as anticoagulant) samples were taken at 0.083, 0.25, 0.5, 1, 2, 4, 6, 8 and 24 hours in the intravenous administration group after administration; and plasma samples were taken at 0.25, 0.5, 1, 2, 4, 6, 8 and 24 hours in the oral administration group after administration. For 6 animals in each group, blood samples were collected for 3 animals at one time point. The first batch of 3 animals was alternately sampled with the second batch of 3 animals. Plasma sample analysis was performed by using LC-MS/MS. The resultant plasma concentrations were plotted with repect to time, and PK parameters were calculated by using Phoenix WinNonlin 6.3.

The nature of data set [4]: Liver-blood ratio experiment of mice via cassette dosing. It counts as in vivo, mice (C57BL/6J). Conditions: for Concentration in liver / Concentration in plasma / Concentration ratio of liver to plasma: oral cassette 2 mg/kg. The protocol: Liver-Blood Ratio Experiment of Mice Via Cassette Dosing
6 male mice (C57BL/6J) were grouped as an oral administration group. 5 kinds of the developed drugs were contained in the formulation, and intragastrical administration was performed at a dose of 2 mg/kg/compound (the vehicle was 0.5% HPMC aqueous solution). The five compounds were firstly and respectively dissolved in the vehicle, and sonicated or whirled to form a 1 mg/mL solution (clear solution or suspension), respectively; and then the solutions of the five compound were mixed in equal volumes (1:1:1:1:1, v:v:v:v:v) into a glass bottle. After intragastrical oral administration, plasma and liver tissue samples were collected from 3 animals at 0.5 h after administration; corresponding samples were collected from the other 3 animals at 3 h after administration. After collection, the liver tissue was homogenized by using ice-cold homogenization buffer (methanol:15 mM PBS buffer (pH 7.4)=1:2, v:v) based on the ratio of liver weight:homogenization buffer volume=1:3. Plasma and liver tissue samples were analyzed by using a five-in-one LC-MS/MS analysis method developed in advance. The concentrations of plasma and liver tissue homogenate were obtained, and the concentration ratios of liver tissue to plasma were calculated by using Excel.

Setting [5] is: mouse, plasma, male C57BL/6J mice, oral 10 mg/kg.
[6] abbreviates: oral, same dosage, at 0.5 h and 3 h.

pEC50: −log10 of the molar value.

What is called pEC50 is the negative decadic logarithm of the EC50, by convention in mol/L. A word on the AUC: it is the area under the concentration-time curve, a measure of exposure. What is called Cmax is the peak of the concentration-time curve. A word on the Tmax: it is the time at which the peak concentration occurs. The term bioavailability denotes dose-corrected exposure relative to a reference, in per cent. Read a low bioavailability as little systemic uptake.

For the molecule `CC[C@H]1[C@@H](O)[C@@H]2[C@H](CC[C@]3(C)[C@@H]([C@H](C)CCOc4ncc(C(=O)O)cc4Cl)CC[C@@H]23)[C@@]2(C)CC[C@@H](O)C[C@@H]12` [Example 23], the Emax in data set [1] worked out at 248%; in data set [2] it was 150%. Besides, in data set [3], the “drug exposure compared with control compound INT-747” value is “higher”. For the same molecule, in data set [3], the “peak concentration compared with control compound INT-747” value is given as “higher”.
Turning to `CC[C@H]1[C@@H](O)[C@@H]2[C@H](CC[C@]3(C)[C@@H]([C@H](C)CCn4cc(C(=O)O)ccc4=O)CC[C@@H]23)[C@@]2(C)CC[C@@H](O)C[C@@H]12` [Example 5], in data set [1], the pEC50 was 7.05 and the Emax was found to be 134%. For the same molecule, in data set [2], the pEC50 is 6.24 and the Emax is 190%.
As for `CC[C@H]1[C@@H](O)[C@@H]2[C@H](CC[C@]3(C)[C@@H]([C@H](C)CCOc4cncc(C(=O)O)c4)CC[C@@H]23)[C@@]2(C)CC[C@@H](O)C[C@@H]12` [Example 11], in data set [1], the pEC50 is 7.52 and the Emax turned out to be 241%. Further, in data set [2], the pEC50 is 7.00 and the Emax stood at 132%. In data set [3], the “drug exposure compared with control compound INT-747” value was “higher” and the “peak concentration compared with control compound INT-747” value is listed as “higher”. In data set [3] (setting [5]), the AUC came out at 5.17 µM·h, the Cmax is 1430 nM and the Tmax turned out to be 2 h.
As for `CC[C@H]1[C@@H](O)[C@@H]2[C@H](CC[C@]3(C)[C@@H]([C@H](C)CCOc4ccc(C(=O)O)cn4)CC[C@@H]23)[C@@]2(C)CC[C@@H](O)C[C@@H]12` [Example 22], the Emax in data set [1] worked out at 249%. Also, in data set [3], the “drug exposure compared with control compound INT-747” value is listed as “higher” and the “peak concentration compared with control compound INT-747” value is recorded as “close to”. The bioavailability in data set [3] (mouse, plasma, male C57BL/6J mice, oral 10 mg/kg vs intravenous 2 mg/kg) was 34%. In data set [4] (0.5 h), the Concentration in liver came out at 1959 nM, the Concentration in plasma came out at 83 nM and the “Concentration ratio of liver to plasma” value was 24. In data set [4] (3 h), the Concentration in liver amounted to 701 nM, the Concentration in plasma was 45 nM and the “Concentration ratio of liver to plasma” value is recorded as 16. Further, in data set [4] (setting [6]), the “drug concentrations in the liver compared with control compound” value is given as “higher” and the “liver/blood concentration ratios compared with control compound” value is listed as “higher”.
As to `CC[C@H]1[C@@H](O)[C@@H]2[C@H](CC[C@]3(C)[C@@H]([C@H](C)CCCn4cc(C(=O)O)ccc4=O)CC[C@@H]23)[C@@]2(C)CC[C@@H](O)C[C@@H]12` [Example 17], the pEC50 in data set [1] is 6.22; in data set [2] it was 5.60. The Emax worked out at 313% in data set [1] and 131% in data set [2].
Taken in the same sequence, the figures for `CC[C@@H]1C2C[C@H](O)CC[C@]2(C)[C@H]2CC[C@]3(C)[C@@H]([C@H](C)CCn4cc(C(=O)O)cn4)CC[C@H]3[C@@H]2[C@@H]1O` (some centres unmarked) [Example 4] were 6.14, 5.73, 334% and 131%.
Consider `CC[C@H]1[C@@H](O)[C@@H]2[C@H](CC[C@]3(C)[C@@H]([C@H](C)CCn4ccc(C(=O)O)cc4=O)CC[C@@H]23)[C@@]2(C)CC[C@@H](O)C[C@@H]12` [Example 6], for which, in data set [1], the negative-log EC50 (pEC50) is 6.44 and the Emax is 375%. Moreover, in data set [2], the pEC50 was 5.29 and the Emax turned out to be 132%.
